Laboratory results published in publication PMC6680510, “Benzotriazine Di-Oxide Prodrugs for Exploiting Hypoxia and Low Extracellular pH in Tumors” (Molecules, 2019).
Several values for one entry are separate records, joined by “and”; a condition that tells them apart may be missing. Identical values can stand only once. Like-named read-outs stand apart in the source and are kept apart here.

Experiments:
[1] = One-electron reduction potentials by pulse radiolysis; assay type: physicochemical; conditions: pH 7.0, equilibrium with redox indicator shown in square brackets
Procedure, shortened: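 Redox equilibria at pH 7.0 (2.5 mM phosphate) established within 50 μs between one-electron reduced compound and viologen references MV^2+, TQ^2+ or V21^2+, generated by 4 MeV linac pulse radiolysis with time-resolved optical absorption. E^0′ vs NHE derived via Nernst equation from equilibrium constants, corrected for ionic strength.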

[2] = system: SiHa cells; test: Cellular uptake in stirred aerobic single cell suspensions (HPLC, 3H-mannitol correction)
[3] = system: SiHa cells; test: IC50 assay (inhibition of proliferation, 4 h exposure, SRB); conditions: SiHa; for IC50: Homo sapiens, 4 h
Procedure, shortened: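 Cells exposed to compound for 4 h in titrated medium, then washed and regrown 5 days under standard conditions (oxia, pHe 7.4). Growth read by sulforhodamine B staining; IC50 from 4-parameter logistic regression of duplicate cultures.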

O=C(O)CCc1n[n+]([O-])c2ccccc2[n+]1[O-] [Compound 4a, 3-(2-Carboxyethyl)benzo[e][1,2,4]triazine 1,4-Dioxide]
E^0′ one-electron reduction potential [1]: −399 mV and −399 ± 7 [MV^2+] mV
Uptake (Ci/Ce) at 4 °C relative to 37 °C ([2]; SiHa cell suspensions, data not shown): undetectable
Ci/Ce, pHe 6.5 Obs 5 min ([2]; aerobic SiHa suspensions, pHe 6.5, 5 min): <0.1
Ci/Ce, pHe 6.5 Obs 60 min ([2]; aerobic SiHa suspensions, pHe 6.5, 60 min): <0.1
Ci/Ce, pHe 7.4 Obs 5 min ([2]; aerobic SiHa suspensions, pHe 7.4, 5 min): <0.1
Ci/Ce, pHe 7.4 Obs 60 min ([2]; aerobic SiHa suspensions, pHe 7.4, 60 min): <0.1
IC50 ([3]; read-out: Anoxic IC50, SiHa, pHe 6.5, 4 h, anoxic): 97 ± 4 µM
IC50 ([3]; read-out: Anoxic IC50, SiHa, pHe 7.4, 4 h, anoxic): 259 ± 26 µM
IC50 ([3]; read-out: Oxic IC50, SiHa, pHe 6.5, 4 h, oxic): 798 ± 43 µM
IC50 ([3]; read-out: Oxic IC50, SiHa, pHe 7.4, 4 h, oxic): 1950 ± 170 µM
TMR (overall TME ratio = oxic IC50 pHe 7.4/anoxic IC50 pHe 6.5) [3]: 20.2 ± 2.0
PCR Anoxic (IC50 at pHe 7.4/IC50 at pHe 6.5) ([3]; anoxic): 2.68 ± 0.29
PCR oxic (IC50 at pHe 7.4/IC50 at pHe 6.5) ([3]; oxic): 2.45 ± 0.25
ACR (anoxic cytotoxicity ratio = oxic IC50/anoxic IC50) ([3]; pHe 6.5): 8.26 ± 0.58
IC50 fold higher than for SN30000 ([3]; pHe 6.5 under anoxia, representative experiment): approximately 50 fold
ACR (anoxic cytotoxicity ratio = oxic IC50/anoxic IC50) ([3]; pHe 7.4): 7.54 ± 1.00
PCR (pH cytotoxicity ratio) ([3]; representative experiment (Figure 3), oxia and anoxia): ~ 2.5
ACR (anoxia cytotoxicity ratio) ([3]; representative experiment (Figure 3), pHe 7.4 and 6.5): ~ 8
